Data as given in patent US8710082B2, “Benzimidazole inhibition of biofilm formation” (priority 2011, dated 2014).
Entries after “also recorded” stand apart in the source; their conditions may differ.

Tests used:
[1] = test system: Shigella boydii; assay: MBEC static biofilm assay, S. boydii; assay type: cell-based; details: 100 μM
Protocol: (§1) Biofilm formation was measured under both static and flow conditions. For the static condition, we used quantitative crystal violet assay on polystyrene 96-well and MBEC plates (Biosurface Technologies, Bozeman Mont.) as described previously. The MBEC technology is a 96-well plate cover containing 96 polystyrene pegs that sit in the 96 wells of a conventional plate. Briefly, overnight grown cultures were standardized to 0.1 OD595, 200 μL was transferred to the wells of a 96-well polystyrene microtiter plate (Corning, Inc., Corning, N.Y.), and the MBEC lid was placed on top of the wells. Biofilms were grown on the pegs of the lid under shaking conditions for 24 h. The lid was removed and the pegs were gently washed twice with 200 μL of phosphate-buffered saline to remove non adherent cells. Adherent biofilms on the pegs were fixed with 200 μL of 100% ethanol prior to staining for 2 min with 200 μL of 0.41% (wt/vol) crystal violet in 12% ethanol (Protocol Crystal Violet; Biochemical Sciences, Swedesboro, N.J.). […] Quantitative assessment of biofilm formation was obtained by immersing the pegs in sterile polystyrene microtiter plate containing 200 μl of 100% ethanol and incubating at room temperature for 10 min (60) and the absorbance at 595 nm was determined using a SpectraMax M5 microplate spectrophotometer system (Molecular Devices, Sunnyvale, Calif.). […]

[2] = test system: S. aureus strain Newman; assay: Flow-cell biofilm formation (CLSM), S. aureus Newman; assay type: cell-based, Staphylococcus aureus; details: 25 μM, shear conditions
[3] = test system: P. aeruginosa CF-145; assay: MBEC static crystal-violet biofilm assay, P. aeruginosa CF-145; assay type: cell-based, Pseudomonas aeruginosa
Protocol: as §1

[4] = test system: V. cholerae; assay: MBEC static crystal-violet biofilm assay, V. cholerae; assay type: cell-based, Vibrio cholerae; details: for inhibition of V. cholerae biofilm development: 100 μM, MBEC crystal-violet assay
[5] = test system: P. aeruginosa CF-145; assay: Flow-cell biofilm formation (CLSM), P. aeruginosa CF-145; assay type: cell-based, Pseudomonas aeruginosa; details: 100 μM, 24 h
[6] = test system: diguanylate cyclase (DGC) enzyme VC2370; assay type: biochemical
Excerpt: (§2) Furthermore, we established an in vitro assay to measure the activity of the diguanylate cyclase (DGC) enzyme VC2370 that synthesizes c-di-GMP and the phosphodiesterase (PDE) enzyme VieA that degrades c-di-GMP.

[7] = test system: phosphodiesterase (PDE) enzyme VieA; assay type: biochemical
Excerpt: as §2

[8] = test system: K. pneumoniae pre-formed biofilms; assay: Dispersal of pre-formed biofilms under flow, K. pneumoniae; assay type: cell-based, Klebsiella pneumoniae; details: 100 μM added at 24 hours, 3, 6 and 24-hour incubation
[9] = test system: S. aureus; assay type: cell-based, Staphylococcus aureus; details: data not shown
[10] = test system: c-di-GMP in V. cholerae; assay type: cell-based, Vibrio cholerae
[11] = test system: gram-negative bacteria; assay: Impact on growth of gram-negative bacteria; assay type: cell-based; details: concentrations used in biofilm tests; data not shown
[12] = test system: E. amylovora; assay: Flow-cell biofilm formation (CLSM), E. amylovora; assay type: cell-based, Erwinia amylovora; details: 100 μM, continuous flow
[13] = test system: P. aeruginosa pre-formed biofilms; assay: Dispersal of pre-formed biofilms under flow, P. aeruginosa; assay type: cell-based, Pseudomonas aeruginosa; details: 100 μM added at 24 hours, 3, 6 and 24-hour incubation
[14] = test system: V. cholerae; assay: Flow-cell biofilm formation (CLSM), V. cholerae; assay type: cell-based, Vibrio cholerae; details: 10 μM, 24 hours
Protocol: For biofilm experiments under flow conditions, biofilms were grown in disposable flow cells (Stovall Life Science, Greensboro, N.C.) as described elsewhere. In brief, the inlet side of the flow cell was connected to a sterile reservoir filled with the appropriate growth medium. The outlet side was connected to a waste reservoir to create a “once-through” flow cell system. Tubing upstream of each individual cell was injected with 0.5 mL of standardized overnight culture of the test strain and the chamber was incubated in upright position at 37° C. for 1 h. Flow was then resumed with flow rate of 0.2 mL/min for V. cholerae, P. aeruginosa, S. boydii, S. aureus and K. pneumoniae, and a flow rate of 0.15 mL/min for E. amylovora. The non-adherent bacteria were eventually flushed by the flow of the medium thereby replacing the volume of the flow cell once every minute. Biofilm formation on the flow cell was imaged both macroscopically and microscopically at 24 h and 48 h. […]
For CLSM analysis of biofilms, the medium flow was stopped and fluorescent dyes syto-9 and propidium iodide (Molecular Probes, Eugene, Oreg., USA) were injected into the flow cell chamber and incubated for 30 min in the dark. […] Thickness of the biofilm was measured starting from the z-section at the flow-cell/biofilm interface to the z-section at the top of the biofilm surface containing <5% of total biomass. […]

[15] = test system: S. boydii; assay: Flow-cell biofilm formation (CLSM), S. boydii; assay type: cell-based, Shigella boydii; details: 100 μM, 48 h
[16] = test system: S. aureus strain Newman; assay: MBEC static biofilm assay, S. aureus Newman; assay type: cell-based, Staphylococcus aureus; details: 25 μM
Protocol: as §1

[17] = test system: Staphylococcus aureus MRSA strain USA3000; assay: MBEC static biofilm assay, S. aureus USA300 (CA-MRSA); assay type: cell-based; details: 25 μM
Protocol: as §1

[18] = test system: CA-MRSA (USA-300); assay: Flow-cell biofilm formation (CLSM), CA-MRSA USA300; assay type: cell-based, Staphylococcus aureus; details: 25 μM, shear conditions
[19] = test system: VC1673-lux; assay: microbe, parasite or virus in culture; details: Vibrio cholerae, read-out: IC50 of inhibition of VC1673-lux
[20] = test system: Klebsiella pneumoniae; assay: MBEC static biofilm assay, K. pneumoniae; assay type: cell-based; details: ABC-1 between 50 and 100 μM for select pathogens, 24 hours
Protocol: as §1

[21] = test system: c-di-GMP in P. aeruginosa PA01; assay type: cell-based, Pseudomonas aeruginosa; details: 35 μM, data not shown
[22] = test system: Erwinia amylovora; assay: MBEC static biofilm assay, E. amylovora; assay type: cell-based; details: 100 μM
Protocol: as §1

[23] = test system: Klebsiella pneumoniae; assay: Flow-cell biofilm formation (CLSM), K. pneumoniae; assay type: cell-based; details: continuous flow

COc1ccc2[nH]c(SCc3ccc(C)cc3)nc2c1 [ABC-1, 5-methoxy-2-[(4-methylbenzyl)sulfanyl]-1H-benzimidazole]
inhibition of biofilms, static [1]: significantly inhibited biofilms; also recorded: significantly impacted | biofilm formation under flow [2]: less surface area coverage and biofilms were present as small patches | inhibition of biofilms, static ([3]; ABC-1 between 50 and 100 μM for select pathogens, MBEC static): significantly inhibited biofilms | IC50 ([3]; Pseudomonas aeruginosa, CF145, read-out: IC50 to inhibit biofilm formation of P. aeruginosa): 45.9 nM | inhibition of V. cholerae biofilm development [4]: capable of significantly inhibiting V. cholerae biofilm development | IC50 ([4]; Vibrio cholerae, read-out: IC50 to inhibit biofilm formation of V. cholerae): 32.3 nM | biofilm formation under flow [5]: greatly reduced biofilm formation | in vitro activity of DGC VC2370 [6]: no significant impact | in vitro activity of PDE VieA [7]: no significant impact | dispersal of pre-formed biofilms [8]: did not confer any significant changes in biofilm architecture | concentration that inhibited the growth of S. aureus [9]: ≥ 50 µM | intracellular c-di-GMP [10]: modest reduction | inhibition of growth of gram-negative bacteria [11]: no impact on growth; also recorded: no concentration of ABC-1 showed inhibition of growth | biofilm development under flow [12]: pronounced decrease | dispersal of pre-formed biofilms [13]: did not confer any significant changes in biofilm architecture | biofilm formation under flow [14]: dramatically reduced biofilm formation | biofilm formation under flow [15]: greatly reduced biofilm formation | inhibition of biofilms, static [16]: significantly inhibited biofilms; also recorded: statistically significant (P<0.05), but less robust than observed for most gram-negative pathogens | inhibition of biofilms, static [17]: significantly inhibited biofilms; also recorded: statistically significant (P<0.05), but less robust than observed for most gram-negative pathogens | biofilm formation under flow [18]: reduced compared to the untreated condition | IC50 [19]: < 10000 nM | inhibition of biofilms, static [20]: significantly inhibited biofilms; also recorded: inhibited biofilm formation | levels of c-di-GMP [21]: no effect | inhibition of biofilms, static [22]: significantly inhibited biofilms; also recorded: pronounced decrease | biofilm formation under flow ([23]; 24 hours): inhibited biofilm formation | fate of biofilms that did form in the presence of ABC-1 ([23]; data not shown): began to disperse beyond 30 hours

COc1ccc2[nH]c(SCc3ccc(Cl)cc3)nc2c1 [ABC-2, 2-[(4-chlorobenzyl)thio]-5-methoxy-1H-benzimidazole]
inhibition of V. cholerae biofilm development [4]: capable of significantly inhibiting V. cholerae biofilm development | IC50 [19]: < 10000 nM
